Experimental data taken from PMC9657098, “Synthesis, In Vitro Biological Evaluation and In Silico Molecular Docking Studies of Indole Based Thiadiazole Derivatives as Dual Inhibitor of Acetylcholinesterase and Butyrylchloinesterase” (Molecules, 2022).
Read-outs that look alike come from different tables or passages of the source.

How the values were obtained:
BuChE = BuChE (Homo sapiens, UniProt P06276); assay: biochemical
Method: (§1) 3.5. Acetylcholinesterase Activity Assay Protocol
(§2) The inhibition of AChE and BChE was determined using a method described earlier.
(§3) Briefly, the stock solutions (1mg/mL) of test analogues were prepared using DMSO. The working solutions (1–100μg/mL) were prepared using serial dilutions (a serial dilution means a series of diluted solutions, e.g., 0.1mg/mL, 0.2mg/mL and so on; the solutions contained 5% DMSO and 95% water). The various concentrations of test compounds (10μL) were pre-incubated with sodium phosphate buffer (0.1 M; pH 8.0; 150μL) and AChE (0.1 U/mL; 20μL) for 15 min at 25°C. The reaction was initiated via the addition of DTNB (1 mM; 10μL) and […] (1 mM; 10 μL). The mixture of reaction was mixed using a cyclomixer and incubated for […]
(§4) wavelength against the blank reading containing 10μL DMSO instead of the test compound (the solution contained 5% DMSO and 95% water). Utilizing the formula given in Equation (1), the percentage of inhibition was computed, and the IC50 was determined under the positive control […]
(§5) % Inhibition = (Absorbance of control—Absorbance of compound)/Absorbance of control × 100 […]
(§6) which was calculated by constructing a non-linear regression graph between the percentages of inhibition vs. concentration, using Graph Pad prism software (version 5.3)(accessed on 5 August […]

AChE = AChE (Homo sapiens, UniProt P22303); assay: biochemical
Method: as §1, §2, §3, §4, §5, §6

[1] = in vitro enzyme inhibition, read-out: BuChE IC50 (µM ± SEM)
[2] = in vitro enzyme inhibition, 25°C, pH 8.0, read-out: AChE IC50 (µM ± SEM)

Chain of AChE (P22303 32-614): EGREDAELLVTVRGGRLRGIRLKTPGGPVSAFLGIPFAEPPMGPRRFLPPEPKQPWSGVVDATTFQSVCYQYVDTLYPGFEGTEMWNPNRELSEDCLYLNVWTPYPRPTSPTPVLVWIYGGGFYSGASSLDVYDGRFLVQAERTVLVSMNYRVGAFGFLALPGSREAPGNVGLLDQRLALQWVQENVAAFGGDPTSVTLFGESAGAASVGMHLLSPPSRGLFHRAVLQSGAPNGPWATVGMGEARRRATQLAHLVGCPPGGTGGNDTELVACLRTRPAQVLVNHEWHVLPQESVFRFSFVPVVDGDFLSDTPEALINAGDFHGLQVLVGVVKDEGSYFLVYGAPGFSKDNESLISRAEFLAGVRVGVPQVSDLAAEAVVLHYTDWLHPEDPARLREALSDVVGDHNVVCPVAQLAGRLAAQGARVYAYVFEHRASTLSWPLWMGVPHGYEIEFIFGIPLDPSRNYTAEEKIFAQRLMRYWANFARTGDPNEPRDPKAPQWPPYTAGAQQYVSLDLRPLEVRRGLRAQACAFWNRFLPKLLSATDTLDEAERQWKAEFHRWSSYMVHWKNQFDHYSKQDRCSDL
Chain of BuChE (P06276 29-602): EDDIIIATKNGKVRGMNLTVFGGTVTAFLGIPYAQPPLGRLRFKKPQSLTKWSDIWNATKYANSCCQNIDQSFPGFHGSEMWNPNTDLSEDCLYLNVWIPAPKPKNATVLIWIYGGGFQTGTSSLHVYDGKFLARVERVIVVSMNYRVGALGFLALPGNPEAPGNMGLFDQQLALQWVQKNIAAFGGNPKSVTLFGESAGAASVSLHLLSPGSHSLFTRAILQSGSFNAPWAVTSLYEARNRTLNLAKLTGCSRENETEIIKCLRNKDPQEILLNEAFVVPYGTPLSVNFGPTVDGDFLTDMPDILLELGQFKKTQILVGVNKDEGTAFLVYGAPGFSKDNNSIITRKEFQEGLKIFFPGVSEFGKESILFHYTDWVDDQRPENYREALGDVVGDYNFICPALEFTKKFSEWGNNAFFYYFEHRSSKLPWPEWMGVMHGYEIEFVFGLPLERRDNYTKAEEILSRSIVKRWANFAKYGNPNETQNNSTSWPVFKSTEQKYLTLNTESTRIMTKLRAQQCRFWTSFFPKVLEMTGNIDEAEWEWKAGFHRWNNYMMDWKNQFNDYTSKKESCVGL

| Structure (SMILES) | IC50 (BuChE) | IC50 (AChE) | IC50 (BuChE; [1]) | IC50 (AChE; [2]) | IC50 (AChE; read-out: IC50 for AchE (abstract)) |
| --- | --- | --- | --- | --- | --- |
| O=[N+]([O-])c1cccc([N+](=O)[O-])c1Nc1nnc(Cc2cc3cc(Cl)ccc3[nH]2)s1 [Compound 4] | 5.4 ± 0.1 µM | 2.8 ± 0.1 µM | – | – | – |
| Cc1ccc(Nc2nnc(Cc3cc4cc(Cl)ccc4[nH]3)s2)cc1C [Compound 5] | – | – | 9.3 ± 0.1 µM | 5.8 ± 0.2 µM | – |
| Cc1cccc(Nc2nnc(Cc3cc4cc(Cl)ccc4[nH]3)s2)c1C [Compound 6] | – | – | 10.9 ± 0.1 µM | 8.7 ± 0.2 µM | – |
| Fc1ccc(Nc2nnc(Cc3cc4cc(Cl)ccc4[nH]3)s2)cc1 [Compound 8] | – | – | 0.2 ± 0.1 µM | – | 0.15 ± 0.05 µM |
| Fc1ccccc1Nc1nnc(Cc2cc3cc(Cl)ccc3[nH]2)s1 [Compound 9] | – | – | 0.5 ± 0.05 µM | 0.35 ± 0.05 µM | – |
| Fc1cccc(Nc2nnc(Cc3cc4cc(Cl)ccc4[nH]3)s2)c1 [Compound 10] | – | – | 2.8 ± 0.1 µM | 1.1 ± 0.1 µM | – |
| O=[N+]([O-])c1cc(Br)cc(Nc2nnc(Cc3cc4cc(Cl)ccc4[nH]3)s2)c1 [Compound 11] | – | – | 18.4 ± 0.3 µM | 12.3 ± 0.2 µM | – |
| COc1c(Nc2nnc(Cc3cc4cc(Cl)ccc4[nH]3)s2)cccc1[N+](=O)[O-] [Compound 12] | – | – | 19.2 ± 0.3 µM | 14.7 ± 0.3 µM | – |
| COc1cc(Nc2nnc(Cc3cc4cc(Cl)ccc4[nH]3)s2)ccc1[N+](=O)[O-] [Compound 13] | – | – | 25.3 ± 0.4 µM | 19.1 ± 0.3 µM | – |
| FC(F)(F)c1ccc(Nc2nnc(Cc3cc4cc(Cl)ccc4[nH]3)s2)cc1Cl [Compound 14] | – | – | 2.6 ± 0.1 µM | 0.4 ± 0.05 µM | – |
| O=[N+]([O-])c1cc(Nc2nnc(Cc3cc4cc(Cl)ccc4[nH]3)s2)ccc1Br [Compound 15] | – | – | 32.1 ± 0.1 µM | 22.2 ± 0.4 µM | – |
| O=[N+]([O-])c1ccc(Br)c(Nc2nnc(Cc3cc4cc(Cl)ccc4[nH]3)s2)c1 [Compound 16] | – | – | 34.3 ± 0.6 µM | – | – |
